Test results: patent US20210087159A1, “TETRAHYDROCANNABINOLIC- CA[…] DERIVATIVES AND USES THEREOF” (AL&AM […]., priority 2018, published 2021)

Legend:
Format in all cases: cell-based
TNF-α = assay: LPS induced cytokine release assay, TNF-α by ELISA in PBMCs; details: human PBMCs; for TNF-α: 72 h, ELISA (LPS control 18.16); for change of TNF-α expression in LPS-treated cells: tested concentrations of 1 M and 10 M (so in the source)
Description: This study was aimed to test the effect of 12 compounds (THCA, Ia1, Ia5, Ia6, Ia9, Ia11, Ia15, Ia17, Ia24, Ia25, Ia27, and Ia28) on human peripheral blood mononuclear cells (PBMCs) challenged by lipopolysaccharide (LPS) through monitoring multiple inflammatory endpoints.
Blood samples were collected from healthy volunteers according to protocols that have been reviewed and approved by the Chempartner Institutional Ethic Committee (IEC) upon signing an Informed Consent Form (ICF).
Fresh PBMCs were isolated and seeded into 96-well plate, and diluted solutions of the tested compounds and 0.1 μg/mL LPS were then added (in triplicates). To serve as control, 3 wells with PBMCs only, 3 wells with 0.1 μg/mL LPS, and 2 wells with 1 μg/mL dexamethasone (Dex) and 0.1 μg/mL LPS were included. After 72 hours incubation, supernatant was collected for tumor necrosis factor-α (TNF-α) measurement by enzyme-linked immunosorbent assay (ELISA), and cell pellets were harvested for cell proliferation measurement by CellTiter-Glo® Luminescent Cell Viability Assay (CTG).
The human blood sample from an individual donor was diluted by the same volume of sterile phosphate buffered solution (PBS) and mixed sufficiently by gentle shake. 15 mL Lymphoprep™ medium was transferred into a new 50 mL centrifuge tube, and the diluted blood sample (30 mL) was then carefully added onto the surface of the medium, which consequently contained Ficoll 400 and blood in a volume ratio of 1:2. Four interfaces were observed after centrifugation, which are, from top to bottom, layers of plasma, mononuclear cells, Ficoll medium, and red blood cells (RBCs). Plasma was absorbed, and mononuclear cells were then transferred into another new sterile centrifuge tube. Then, sterile PBS buffer was added into the collected PBMCs for washing, at a volume ratio of 3:1. PBMCs were washed with 5-10 mL PBS twice before cell counting with cytometer. Cells were centrifuged at 350×g, for 10 min, at 20° C. with the acceleration (5) and deceleration (5) settings during the centrifugation. The cells were resuspended with RPMI 1640 complete medium (containing 10% FBS) for assay, and the density was adjusted with RPMI 1640 complete medium to the final concentration of 2E6 cells/mL. Cells suspension of the PBMCs (100 μL/well) were seeded into 96-well plate (#3903).
Diluted solutions of the tested compounds were prepared with RPMI 1640 complete medium according to the following layout. Compounds were prepared at 5-fold of concentration (50 μM), and then were diluted to the working concentration of 10 μM with RPMI 1640 complete medium and made 10-fold serially dilution (2 points). The diluted compounds (50 μL/well) were added to the indicated wells, and the plate was incubated at 37° C., 5% CO2, for 72 h.
LPS (0.1 μg/mL, 100 μL) was added into each well. Dex (1 μg/mL) was included as a positive control. Plate was incubated at 37° C., 5% CO2 for 72 h. Supernatant was collected to measure TNF-α by ELISA. Cell proliferation was detected by CTG.

A549, lung carcinoma = assay: CellTiter-Glo cell viability assay, cancer cell cytotoxicity/anti-proliferation panel (Chempartner); details: for Inhibition: A549, 72 hours, compounds 10 μM starting, STS 2 μM starting, 10-pt, 3-fold dilution; for IC50: Homo sapiens, A549, 72 h, read-out: IC50 (absolute IC50)
Description: (§1) In this study, the biological activity of certain compounds of the present invention on cancer cell cytotoxicity/anti-proliferation panel was tested using the CellTiter-Glo® cell viability assay. The compounds were dissolved in DMSO to make 10 mM solution.
(§2) The cell lines tested were all selected from the Chempartner's cell collection and included: Caco-2 ATCC colon adenocarcinoma; TE-6 RIKEN esophagus, carcinoma; PC-3 ATCC prostate adenocarcinoma; T47D, breast ductal carcinoma; U251, brain human glioma; A549, lung carcinoma; OMP-2, multiple myeloma; SK-HEP-1, liver adenocarcinoma; PANC-1, pancreas ductal carcinoma; AsPC-1, pancreas, ductal carcinoma; and U-87 MG, brain glioblastoma.
(§3) For the assays described herein, absolute inhibition of cells growth (%) and absolute IC50 (Abs IC50; […]) were used to derive a value that can be used to compare results within and across runs in the same assay, as well as between different assays.
(§4) • a. Prepare complete medium: Add FBS and appropriate additives according to the information sheet provided by the vendor. Mix gently. • b. Check the cell name and complete medium and passage number marked on the flask. For adherent cell lines, refer to c to k. For suspension cell lines, refer to g to k. • c. Remove and discard culture medium using a vacuum pump. • d. Briefly rinse the cell layer with 0.25% (w/v) trypsin-0.038% (w/v) EDTA solution to remove all traces of serum that contains trypsin inhibitor. • e. Add 3.0 ml of trypsin-EDTA solution to flask and observe cells under an inverted microscope until cell layer is dispersed. • f. Add 8.0 ml of complete growth medium and aspirate cells by gently pipetting. • g. Transfer the cell suspension to a centrifuge tube and centrifuge at 800-1000 rpm for 3-5 minutes. • h. Discard the supernatant using a vacuum pump. • i. Add appropriate volume of complete medium. Suspend the cell pellet by gently pipetting. • j. Count the cell numbers with Vi-cell XR and adjust cells to appropriate density. • k. Add 100 μL of cell suspension to 96-well opaque-walled clear bottom plates according to the planned plate layout and place the plates in the CO2 incubator overnight. • l. Plate layout:
(§5) • Plate preparation of testing articles. 10 mM stock solution of each one of the compounds (provided as powder) was prepared in DMSO. […] 0.5 μL of each of the diluted compounds was transferred to the wells containing 100 μL of the culture medium. The total dilution was 200 fold. Cells were incubated with the compounds for 72 hours at 5% CO2, 37° C.
(§6) • Thaw the CellTiter-Glo buffer and equilibrate to room temperature prior to use. • Equilibrate the lyophilized CellTiter-Glo substrate to room temperature prior to use. • Transfer the appropriate volume of CellTiter-Glo buffer into the amber bottle containing CellTiter-Glo substrate to reconstitute the lyophilized enzyme/substrate mixture. This forms the CellTiter-Glo reagent. • Mix by gently vortexing, swirling or by inverting the contents to obtain a homogeneous solution. The CellTiter-Glo substrate should go into solution easily in less than one minute.
(§7) • Observe the cell morphology under an inverted microscope after corresponding treatment. • Equilibrate the plate and its contents to room temperature for approximately 30 minutes. • Add 100 μL of CellTiter-Glo reagent to the assay plate by Multidrop Combi instrument. • Mix contents for 10 minutes on an orbital shaker to induce cell lysis. • Allow the plate to incubate at room temperature for 10 minutes to stabilize luminescent signal. • Paste the clear bottom with white back seal and record luminescence with Enspire. The settings should be: Luminescence, measurement time 0.1 ms.
(§8) Inhibition (%) and absolute IC50 (μM) of each compound was calculated with XLFit curve fitting software that is compatible to Activity Base.

[1] = tested on: U-87 MG, brain glioblastoma; assay: as above; details: for Inhibition: 72 hours, compounds 10 μM starting, STS 2 μM starting, 10-pt, 3-fold dilution; for IC50: Homo sapiens, 72 h, read-out: IC50 (absolute IC50)
Description: as §1, §2, §3, §4, §5, §6, §7, §8

SMILES	TNF-α (TNF-α; compound 1 μM + 0.1 μg/mL LPS) [pg/mL]	TNF-α (TNF-α; compound 10 μM + 0.1 μg/mL LPS) [pg/mL]	change of TNF-α expression in LPS-treated cells (TNF-α)	Inhibition (A549, lung carcinoma) [%]	IC50 (A549, lung carcinoma) [µM]	Inhibition [1] [%]	IC50 [1] [µM]
C=C(C)[C@@H]1CCC(C)=C[C@H]1c1c(O)cc(CCCCC)c(C(=O)NCCCN2CCOCC2)c1O [Ia28, (1′R,2′R)-2,6-dihydroxy-5′-methyl-N-(3-morpholinopropyl)-4-pentyl-2′-(prop-1-en-2-yl)-1′,2′,3′,4′-tetrahydro-[1,1′-biphenyl]-3-carboxamide]	41.38	22.35	decreased TNF-α expression	–	–	–	–
CCCCCc1cc2c(c(O)c1C(=O)NCCCN1CCOCC1)[C@@H]1C=C(C)CC[C@H]1C(C)(C)O2 [Ia9, (6aR,0aR)-1-hydroxy-6,6,9-trimethyl-N-(3-morpholinopropyl)-3-pentyl-6a,7,8,10a-tetrahydro-6H-benzo[c]chromene-2-carboxamide]	20.26	45.82	increased TNF-α expression	77.08	5.59	19.84	> 10
CCCCCc1cc2c(c(O)c1C(=O)O)[C@@H]1C=C(C)CC[C@H]1C(C)(C)O2 [THCA, tetrahydrocannabinolic acid, reference compound]	21.04	27.57	increased TNF-α expression	9.30	> 10	10.52	> 10
CCCCCc1cc2c(c(O)c1C(=O)NCCN(C)C)[C@@H]1C=C(C)CC[C@H]1C(C)(C)O2 [Ia6, (6aR,0aR)—N-(2-(dimethylamino)ethyl)-1-hydroxy-6,6,9-trimethyl-3-pentyl-6a,7,8,10a-tetrahydro-6H-benzo[c]chromene-2-carboxamide]	17.09	49.73	increased TNF-α expression	66.67	7.34	13.79	> 10
